Active and inactive are the calls of the source. The calls are words filed in the database; no cut-off is given here.
Assays:
[1] = Toxicity in BALB/c-nude mouse xenografted with human MGC-803 cells assessed as alteration in liver tissue at 30 mg/kg/day, ip administered for 18 days by hematoxylin and eosin staining based analysis; type: organism-based; conditions: in vivo, 432 h, time 18 day
[2] = target: T1, Tubulin beta (Homo sapiens) (UniProt P68371+Q9H4B7+Q13509+P04350+Q3ZCM7+P07437+Q13885+Q9BVA1+Q9BUF5+A6NNZ2); assay: Binding affinity to beta-tubulin (unknown origin) assessed as increase in alkaline protease level at 1 to 100 uM preincubated for 1 hr followed by alkaline protease addition and measured after 15 mins by Western blotting analysis; type: protein assay; conditions: dose 1-100 µM, time 75.0 min
[3] = test system: MGC-803; assay: Induction of apoptosis in human MGC-803 cells assessed as increase in cleaved PARP at 10 to 40 nmol/L incubated for 48 hrs by Western blotting; type: functional, cell-based; conditions: dose 10-40 nmol/L
[4] = test system: MGC-803; assay: Antitumor activity against human MGC-803 cells xenografted in BALB/c-nude mouse assessed as tumor weight at 30 mg/kg/day, ip administered for 18 days (reference value: 0.656 g); type: functional; conditions: time 18 day
[5] = Toxicity in BALB/c-nude mouse xenografted with human MGC-803 cells assessed as abnormal behaviour at 30 mg/kg/day, ip administered for 18 days; type: organism-based; conditions: in vivo, 432 h, time 18 day
[6] = test system: MGC-803; assay: Antiproliferative activity against human MGC-803 cells assessed as inhibition of cell growth incubated for 48 hrs by MTT assay; type: functional, cell-based; conditions: MGC-803, 48 h
[7] = Toxicity in BALB/c-nude mouse xenografted with human MGC-803 cells assessed as alteration in spleen tissue at 30 mg/kg/day, ip administered for 18 days by hematoxylin and eosin staining based analysis; type: organism-based; conditions: in vivo, 432 h, time 18 day
[8] = test system: MGC-803; assay: Antitumor activity against human MGC-803 cells xenografted in BALB/c-nude mouse assessed as tumor growth inhibition at 30 mg/kg/day, ip administered for 18 days relative to control; type: functional; conditions: MGC-803, 432 h, time 18 day, read-out: TGI
[9] = test system: MGC-803; assay: Antiproliferative activity against human MGC-803 cells assessed as increase in nuclear brightness at 10 to 40 nmol/L incubated for 48 hrs by DAPI staining based fluorescence microscopic analysis; type: functional, cell-based; conditions: dose 10-40 nmol/L
[10] = test system: MGC-803; assay: Induction of cell cycle arrest in human MGC-803 cells assessed as increase in G2/M phase cells at 10 to 40 nmol/L incubated for 24 hrs by RNAse/propidium iodide staining based flow cytometry analysis relative to control; type: functional; conditions: dose 10-40 nmol/L, at 10 to 40 nM
[11] = target: T2, Tubulin (Homo sapiens) (UniProt P68371+Q9H4B7+P0DPH7+P68366+Q13509+Q71U36+P04350+Q3ZCM7+P07437+P68363+Q9BQE3+Q6PEY2+Q13885+Q9BVA1+Q9BUF5); assay: Inhibition of tubulin polymerization (unknown origin) at 1 to 3 uM by fluorescence plate reader analysis; type: protein-complex assay; conditions: dose 1-3 µM
[12] = test system: MGC-803; assay: Induction of apoptosis in human MGC-803 cells assessed as late apoptotic cells at 20 nmol/L incubated for 48 hrs by Annexin V-FITC/propidium iodide staining based flow cytometer analysis (reference value: 2.22 %); type: functional
[13] = target: T2, Tubulin (Homo sapiens); assay: Inhibition of tubulin polymerization in human MGC-803 cells assessed as reduction in filamentous microtubule structure formation at 10 to 40 nmol/L incubated for 48 hrs by DAPI staining based fluorescence microscopic analysis; type: cell-based; conditions: dose 10-40 nmol/L
[14] = test system: MGC-803; assay: Inhibition of colony formation in human MGC-803 cells incubated for 7 days by crystal violet staining based analysis; type: functional, cell-based; conditions: dose 24-40 nmol/L, time 7.0 day
[15] = target: T1, Tubulin beta (Homo sapiens); assay: Binding affinity to beta-tubulin (unknown origin) colchicine binding site assessed as reduction in beta-tubulin-EBI adduct at 10 to 30 uM incubated for 2 hrs in presence of EBI by Western blotting; type: protein assay; conditions: dose 10-30 µM
[16] = target: T2, Tubulin (Homo sapiens); assay: Inhibition of tubulin polymerization in human MGC-803 cells assessed as appearance of multinucleated cells at 10 to 40 nmol/L incubated for 48 hrs by DAPI staining based fluorescence microscopic analysis; type: cell-based; conditions: dose 10-40 nmol/L

Activity [2]: Active
IC50 [6]: 34 nM
inhibition [11]: Active
inhibition [13]: Active
Activity [15]: Active
inhibition [16]: Active
Structure (SMILES): COc1ccc2c(c1)CCCN2c1cc(=O)oc2ccccc12
Activity [1]: Non-Toxic
Activity [3]: Active
Activity [4]: 0.226 g
Activity [5]: Non-Toxic
Activity [7]: Non-Toxic
inhibition in vivo at 30 mg/kg/day [8]: 65.5%
Activity [9]: Active
Activity [10]: 18%
Activity [12]: 2.7%
inhibition [14]: Dose-Dependent Effect

From ChEMBL document CHEMBL5518178 (Eur J Med Chem, 2024)
